Test results from PubChem BioAssay (NCI).
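Values below derive from 48-hour exposures of cells grown in 96-well plates, with endpoints linearly interpolated between the two concentrations bracketing the appropriate inhibition level. GI50 = concentration required for 50% inhibition of growth. TGI: total growth inhibition.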

What was measured:
Experiment in all cases: growth of human tumour cells (NCI), 48 h
[1] = system: UACC-62 melanoma
[2] = system: UO-31 renal
[3] = system: SF-539 CNS
[4] = system: HOP-62 NSCLC
[5] = system: OVCAR-8 ovarian
[6] = system: HCT-116 colon
[7] = system: SK-OV-3 ovarian
[8] = system: SK-MEL-28 melanoma
[9] = system: RXF 393 renal
[10] = system: A549 NSCLC
[11] = system: OVCAR-3 ovarian
[12] = system: MDA-MB-435
[13] = system: T-47D breast
[14] = system: NCI/ADR-RES ovarian
[15] = system: MCF7 breast
[16] = system: U251 CNS
[17] = system: LOX IMVI melanoma
[18] = system: K-562 leukemia
[19] = system: IGROV1 ovarian
[20] = system: A498 renal
[21] = system: BT-549 breast
[22] = system: HL-60(TB) leukemia
[23] = system: NCI-H226 lung
[24] = system: SK-MEL-5 melanoma
[25] = system: MALME-3M melanoma
[26] = system: SF-295 CNS
[27] = system: OVCAR-5 ovarian
[28] = system: EKVX NSCLC
[29] = system: OVCAR-4 ovarian
[30] = system: HS 578T breast
[31] = system: UACC-257 melanoma
[32] = system: HCC-2998 colon
[33] = system: SW-620 colon
[34] = system: MDA-MB-231 breast
[35] = system: PC-3 prostate
[36] = system: NCI-H460 lung
[37] = system: CAKI-1 renal
[38] = system: SNB-75 CNS
[39] = system: SF-268 CNS
[40] = system: M14 melanoma
[41] = system: SN12C renal
[42] = system: NCI-H522 lung
[43] = system: ACHN renal
[44] = system: DU-145 prostate
[45] = system: KM12 colon
[46] = system: SR leukemia
[47] = system: NCI-H23 lung
[48] = system: RPMI-8226 leukemia
[49] = system: COLO 205 colon
[50] = system: HCT-15 colon
[51] = system: SK-MEL-2 melanoma
[52] = system: TK-10 renal
[53] = system: HOP-92 NSCLC

SMILES: O=c1ccc2nc(C(F)(F)F)nn(-c3ccccc3)c-2c1
- GI50 [1]: 5.13 µM
- TGI [1]: 17.9 µM
- GI50 [2]: 1.48 µM
- TGI [2]: 2.9 µM
- GI50 [3]: 15.8 µM
- TGI [3]: 29.3 µM
- GI50 [4]: 7.95 µM
- TGI [4]: 27.7 µM
- GI50 [5]: 4.21 µM
- TGI [5]: 33.9 µM
- GI50 [6]: 1.61 µM
- TGI [6]: 3.15 µM
- GI50 [7]: 15 µM
- TGI [7]: > 100 µM
- GI50 [8]: 1.7 µM
- TGI [8]: 3.26 µM
- GI50 [9]: 1.45 µM
- TGI [9]: 2.8 µM
- GI50 [10]: 19.3 µM
- TGI [10]: 39 µM
- GI50 [11]: 1.58 µM
- TGI [11]: 2.95 µM
- GI50 [12]: 4.56 µM
- TGI [12]: 16.4 µM
- GI50 [13]: 1.69 µM
- TGI [13]: 6.62 µM
- GI50 [14]: 17.1 µM
- TGI [14]: 64 µM
- GI50 [15]: 0.495 µM
- TGI [15]: 4.07 µM
- GI50 [16]: 13.4 µM
- TGI [16]: 28.6 µM
- GI50 [17]: 1.59 µM
- TGI [17]: 3.22 µM
- GI50 [18]: 2.11 µM
- TGI [18]: 9.14 µM
- GI50 [19]: 11.9 µM
- TGI [19]: 25.5 µM
- GI50 [20]: 14.1 µM
- TGI [20]: 27.2 µM
- GI50 [21]: 12.3 µM
- TGI [21]: 24.8 µM
- GI50 [22]: 1.21 µM
- TGI [22]: 4.31 µM
- GI50 [23]: 13.1 µM
- TGI [23]: 30.5 µM
- GI50 [24]: 7.8 µM
- TGI [24]: 21.1 µM
- GI50 [25]: 1.82 µM
- TGI [25]: 3.3 µM
- GI50 [26]: 22.7 µM
- TGI [26]: 67.1 µM
- GI50 [27]: 15.4 µM
- TGI [27]: 29.1 µM
- GI50 [28]: 13.6 µM
- TGI [28]: 27.1 µM
- GI50 [29]: 1.47 µM
- TGI [29]: 2.83 µM
- GI50 [30]: 12.2 µM
- TGI [30]: 80.4 µM
- GI50 [31]: 1.91 µM
- TGI [31]: 4.05 µM
- GI50 [32]: 15.4 µM
- TGI [32]: 29.7 µM
- GI50 [33]: 1.75 µM
- TGI [33]: 3.71 µM
- GI50 [34]: 1.92 µM
- TGI [34]: 5.55 µM
- GI50 [35]: 10.7 µM
- TGI [35]: 23.7 µM
- GI50 [36]: 17.6 µM
- TGI [36]: 36.2 µM
- GI50 [37]: 1.47 µM
- TGI [37]: 2.8 µM
- GI50 [38]: 13.3 µM
- TGI [38]: 26.4 µM
- GI50 [39]: 15 µM
- TGI [39]: 28.9 µM
- GI50 [40]: 5.8 µM
- TGI [40]: 19 µM
- GI50 [41]: 7.31 µM
- TGI [41]: 57.4 µM
- GI50 [42]: 1.51 µM
- TGI [42]: 3.01 µM
- GI50 [43]: 1.18 µM
- TGI [43]: 2.45 µM
- GI50 [44]: 1.77 µM
- TGI [44]: 3.17 µM
- GI50 [45]: 19.6 µM
- TGI [45]: 37.3 µM
- GI50 [46]: 0.999 µM
- TGI [46]: > 100 µM
- GI50 [47]: 5.96 µM
- TGI [47]: 22.2 µM
- GI50 [48]: 4.82 µM
- TGI [48]: 77.5 µM
- GI50 [49]: 2.32 µM
- TGI [49]: 5.77 µM
- GI50 [50]: 1.45 µM
- TGI [50]: 3.42 µM
- GI50 [51]: 3.63 µM
- TGI [51]: 15.6 µM
- GI50 [52]: 1.62 µM
- TGI [52]: 3.09 µM
- GI50 [53]: 1.41 µM
- TGI [53]: 2.97 µM
